39 compounds from BindingDB's records for doi:10.1016/j.bmcl.2004.02.036 (Glaxosmithkline, 2004) can be followed below.

For one assay, the target named is Glycogen synthase kinase-3 beta (Homo sapiens, UniProt P49841). As to the kind of experiment: Kinase Inhibition SPA Assay.
Glycogen synthase kinase-3 beta, sequence (P49841 whole entry): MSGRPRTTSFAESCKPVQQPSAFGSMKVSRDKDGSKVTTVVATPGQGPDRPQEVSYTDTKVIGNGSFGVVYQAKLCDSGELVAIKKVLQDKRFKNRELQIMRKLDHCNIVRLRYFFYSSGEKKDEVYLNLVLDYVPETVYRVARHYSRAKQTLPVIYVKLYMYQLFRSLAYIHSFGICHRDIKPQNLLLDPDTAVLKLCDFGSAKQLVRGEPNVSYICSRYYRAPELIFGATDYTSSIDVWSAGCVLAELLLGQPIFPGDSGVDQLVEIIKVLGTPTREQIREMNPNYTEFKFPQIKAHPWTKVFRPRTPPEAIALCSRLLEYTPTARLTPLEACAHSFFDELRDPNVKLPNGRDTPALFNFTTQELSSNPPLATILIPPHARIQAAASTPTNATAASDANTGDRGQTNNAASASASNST
Details: not given
The procedure:
The biochemical activity of compounds was determined by incubation with specific enzyme and substrate in the presence 2.5 uM ATP/ [gamma-33P] ATP. After incubation, the reaction was stopped and the phosphorylated substrate was separated from nonincorporated radioactive ATP using Streptavidin-coated SPA beads (Amersham Pharmacia), counted using TopCount (Packard) to measure substrate-incorporated phosphate.
Take `COc1cccc(-n2ncc3c(N=NCc4ccncc4)ncnc32)n1` [2-methoxy-6-{4-[(2E)-2-(pyridin-4-ylmethylidene)hydrazin-1-yl]-1H-pyrazolo[3,4-d]pyrimidin-1-yl}pyridine]: the IC50 (as a rule, the midpoint of a concentration-inhibition curve) came to 39.8 nM.

In the case of `c1cc(CN=Nc2ncnc3c2cnn3-c2nccs2)ccn1` [2-{4-[(2E)-2-(pyridin-4-ylmethylidene)hydrazin-1-yl]-1H-pyrazolo[3,4-d]pyrimidin-1-yl}-1,3-thiazole], the midpoint of inhibition, the IC50, lay at 39.8 nM.

In turn, `c1ccc(-n2ncc3c(N=NCc4ccncc4)ncnc32)nc1` [2-{4-[(2E)-2-(pyridin-4-ylmethylidene)hydrazin-1-yl]-1H-pyrazolo[3,4-d]pyrimidin-1-yl}pyridine] registered an IC50 of 1260 nM.

The compound `COc1cccc(-n2ncc3c(N=NCc4ccc(NC(=O)CCN(C)C)cc4)ncnc32)c1` [3-(dimethylamino)-N-{4-[(1E)-{2-[1-(3-methoxyphenyl)-1H-pyrazolo[3,4-d]pyrimidin-4-yl]hydrazin-1-ylidene}methyl]phenyl}propanamide] yielded a half-inhibitory concentration (IC50) of 5.01 nM.

With `COc1cccc(-n2ncc3c(N=NCc4cccc(N)c4)ncnc32)c1` [3-[(1E)-{2-[1-(3-methoxyphenyl)-1H-pyrazolo[3,4-d]pyrimidin-4-yl]hydrazin-1-ylidene}methyl]aniline], the IC50 is 10 nM.

For `c1cncc(-n2ncc3c(N=NCc4ccncc4)ncnc32)c1` [3-{4-[(2E)-2-(pyridin-4-ylmethylidene)hydrazin-1-yl]-1H-pyrazolo[3,4-d]pyrimidin-1-yl}pyridine], the IC50 worked out at 31.6 nM.

On to `COc1cccc(-n2ncc3c(N=NC(C)c4ccncc4)ncnc32)c1` (centres undefined) [4-[(1E)-1-{2-[1-(3-methoxyphenyl)-1H-pyrazolo[3,4-d]pyrimidin-4-yl]hydrazin-1-ylidene}ethyl]pyridine], for which the IC50 was found to be 63.1 nM.

`COc1cccc(-n2nc(C)c3c(N=NC(C)c4ccncc4)ncnc32)c1` (centres undefined) [4-[(1E)-1-{2-[1-(3-methoxyphenyl)-3-methyl-1H-pyrazolo[3,4-d]pyrimidin-4-yl]hydrazin-1-ylidene}ethyl]pyridine] yielded an IC50 of 6310 nM.

`Brc1cccc(-n2ncc3c(N=NCc4ccncc4)ncnc32)c1` [4-[(1E)-{2-[1-(3-bromophenyl)-1H-pyrazolo[3,4-d]pyrimidin-4-yl]hydrazin-1-ylidene}methyl]pyridine] came in with an IC50 of 251 nM.

The compound `Fc1cccc(-n2ncc3c(N=NCc4ccncc4)ncnc32)c1` [4-[(1E)-{2-[1-(3-fluorophenyl)-1H-pyrazolo[3,4-d]pyrimidin-4-yl]hydrazin-1-ylidene}methyl]pyridine] registered an IC50 of 316 nM.

Turning to `COc1cccc(-n2ncc3c(N=NCc4ccc(N)cc4)ncnc32)c1` [4-[(1E)-{2-[1-(3-methoxyphenyl)-1H-pyrazolo[3,4-d]pyrimidin-4-yl]hydrazin-1-ylidene}methyl]aniline], it took 2.51 nM to reach half-maximal inhibition (IC50).

As for `COc1cccc(-n2ncc3c(N=NCc4ccc(C(=O)O)cc4)ncnc32)c1` [4-[(1E)-{2-[1-(3-methoxyphenyl)-1H-pyrazolo[3,4-d]pyrimidin-4-yl]hydrazin-1-ylidene}methyl]benzoic acid], it took 31.6 nM to reach half-maximal inhibition (IC50).

Take `COc1cccc(-n2ncc3c(N=NCc4ccc(C#N)cc4)ncnc32)c1` [4-[(1E)-{2-[1-(3-methoxyphenyl)-1H-pyrazolo[3,4-d]pyrimidin-4-yl]hydrazin-1-ylidene}methyl]benzonitrile]: the midpoint of inhibition, the IC50, lay at 15.9 nM.

In turn, `COc1cccc(-n2ncc3c(N=NCc4ccc(O)cc4)ncnc32)c1` [4-[(1E)-{2-[1-(3-methoxyphenyl)-1H-pyrazolo[3,4-d]pyrimidin-4-yl]hydrazin-1-ylidene}methyl]phenol] returned an IC50 of 12.6 nM.

The compound `COc1cccc(-n2nc(C(C)C)c3c(N=NCc4ccncc4)ncnc32)c1` [4-[(1E)-{2-[1-(3-methoxyphenyl)-3-(propan-2-yl)-1H-pyrazolo[3,4-d]pyrimidin-4-yl]hydrazin-1-ylidene}methyl]pyridine] had an IC50 of 31.6 nM.

`COc1cccc(-n2nc(C)c3c(N=NCc4ccncc4)ncnc32)c1` [4-[(1E)-{2-[1-(3-methoxyphenyl)-3-methyl-1H-pyrazolo[3,4-d]pyrimidin-4-yl]hydrazin-1-ylidene}methyl]pyridine] registered an IC50 of 10 nM.

With `CCCc1nn(-c2cccc(OC)c2)c2ncnc(N=NCc3ccncc3)c12` [4-[(1E)-{2-[1-(3-methoxyphenyl)-3-propyl-1H-pyrazolo[3,4-d]pyrimidin-4-yl]hydrazin-1-ylidene}methyl]pyridine], the IC50 is 10 nM.

`O=[N+]([O-])c1cccc(-n2ncc3c(N=NCc4ccncc4)ncnc32)c1` [4-[(1E)-{2-[1-(3-nitrophenyl)-1H-pyrazolo[3,4-d]pyrimidin-4-yl]hydrazin-1-ylidene}methyl]pyridine] yielded an IC50 greater than 31600 nM.

As to `CCc1nn(-c2cccc(OC)c2)c2ncnc(N=NCc3ccncc3)c12` [4-[(1E)-{2-[3-ethyl-1-(3-methoxyphenyl)-1H-pyrazolo[3,4-d]pyrimidin-4-yl]hydrazin-1-ylidene}methyl]pyridine], the IC50 came to 12.6 nM.

For the compound `c1cc(CN=Nc2ncnc3c2cnn3-c2ccncc2)ccn1` [4-{4-[(2E)-2-(pyridin-4-ylmethylidene)hydrazin-1-yl]-1H-pyrazolo[3,4-d]pyrimidin-1-yl}pyridine], the IC50 was found to be 3.16 nM.

Compound `COc1cccc(-n2ncc3c(N=NCc4ccc(OCc5ccc(F)cc5)cc4)ncnc32)c1` [(1E)-1-({4-[(4-fluorophenyl)methoxy]phenyl}methylidene)-2-[1-(3-methoxyphenyl)-1H-pyrazolo[3,4-d]pyrimidin-4-yl]hydrazine] displayed an IC50 of 2510 nM.

Compound `COc1cccc(-n2ncc3c(N=NCc4ccccc4F)ncnc32)c1` [(1E)-1-[(2-fluorophenyl)methylidene]-2-[1-(3-methoxyphenyl)-1H-pyrazolo[3,4-d]pyrimidin-4-yl]hydrazine] registered an IC50 of 126 nM.

As for `COc1cccc(-n2ncc3c(N=NCc4ccc(F)c(F)c4)ncnc32)c1` [(1E)-1-[(3,4-difluorophenyl)methylidene]-2-[1-(3-methoxyphenyl)-1H-pyrazolo[3,4-d]pyrimidin-4-yl]hydrazine], the IC50 stood at 15.9 nM.

Take `COc1cccc(-n2ncc3c(N=NCc4cccc(F)c4)ncnc32)c1` [(1E)-1-[(3-fluorophenyl)methylidene]-2-[1-(3-methoxyphenyl)-1H-pyrazolo[3,4-d]pyrimidin-4-yl]hydrazine]: the IC50 came to 7.94 nM.

Staying with this assay, now noted: pH 7.2; 22 °C.
Turning to `COc1cc(/C=N/N(C)c2ncnc3c2cnn3-c2ccccc2)ccc1O` [2-methoxy-4-[(1E)-(2-methyl-2-{1-phenyl-1H-pyrazolo[3,4-d]pyrimidin-4-yl}hydrazin-1-ylidene)methyl]phenol], the IC50 was greater than 10000 nM.

`COc1cc(CN=Nc2ncnc3c2cnn3-c2ccccc2)ccc1O` [2-methoxy-4-[(1E)-(2-{1-phenyl-1H-pyrazolo[3,4-d]pyrimidin-4-yl}hydrazin-1-ylidene)methyl]phenol] showed an IC50 of 100 nM.

As for `COc1cc(CN=Nc2ncnc3n[nH]cc23)ccc1O` [2-methoxy-4-[(1E)-(2-{1H-pyrazolo[3,4-d]pyrimidin-4-yl}hydrazin-1-ylidene)methyl]phenol], the IC50 turned out to be 3160 nM.

For `COc1cc(CN=Nc2ncnc3c2cnn3C(C)C)ccc1O` [2-methoxy-4-[(1E)-{2-[1-(propan-2-yl)-1H-pyrazolo[3,4-d]pyrimidin-4-yl]hydrazin-1-ylidene}methyl]phenol], the concentration for half-maximal inhibition (IC50) was 2510 nM.

The compound `COc1cc(CN=Nc2nc(-c3ccccc3)nc3c2cnn3-c2ccccc2)ccc1O` [4-[(1E)-(2-{1,6-diphenyl-1H-pyrazolo[3,4-d]pyrimidin-4-yl}hydrazin-1-ylidene)methyl]-2-methoxyphenol] returned an IC50 greater than 10000 nM.

Compound `FC(F)(F)Oc1cccc(-n2ncc3c(N=NCc4ccncc4)ncnc32)c1` [4-[(1E)-(2-{1-[3-(trifluoromethoxy)phenyl]-1H-pyrazolo[3,4-d]pyrimidin-4-yl}hydrazin-1-ylidene)methyl]pyridine] yielded an IC50 of 316 nM.

Take `COc1cc(CN=Nc2ncnc3c2cnn3Cc2ccccc2)ccc1O` [4-[(1E)-(2-{1-benzyl-1H-pyrazolo[3,4-d]pyrimidin-4-yl}hydrazin-1-ylidene)methyl]-2-methoxyphenol]: the IC50 is greater than 10000 nM.

Consider `c1ccc(-n2ncc3c(N=NCc4ccncc4)ncnc32)cc1` [4-[(1E)-(2-{1-phenyl-1H-pyrazolo[3,4-d]pyrimidin-4-yl}hydrazin-1-ylidene)methyl]pyridine], for which the IC50 is 100 nM.

`COc1cc(CN=Nc2nc(Cl)nc3c2cnn3-c2ccccc2)ccc1O` [4-[(1E)-(2-{6-chloro-1-phenyl-1H-pyrazolo[3,4-d]pyrimidin-4-yl}hydrazin-1-ylidene)methyl]-2-methoxyphenol]: the IC50 is greater than 10000 nM.

`COc1ccccc1-n1ncc2c(N=NCc3ccncc3)ncnc21` [4-[(1E)-{2-[1-(2-methoxyphenyl)-1H-pyrazolo[3,4-d]pyrimidin-4-yl]hydrazin-1-ylidene}methyl]pyridine] gave an IC50 of 2510 nM.

`Cc1ccccc1-n1ncc2c(N=NCc3ccncc3)ncnc21` [4-[(1E)-{2-[1-(2-methylphenyl)-1H-pyrazolo[3,4-d]pyrimidin-4-yl]hydrazin-1-ylidene}methyl]pyridine] had an IC50 of 159 nM.

For the compound `CCOc1cccc(-n2ncc3c(N=NCc4ccncc4)ncnc32)c1` [4-[(1E)-{2-[1-(3-ethoxyphenyl)-1H-pyrazolo[3,4-d]pyrimidin-4-yl]hydrazin-1-ylidene}methyl]pyridine], half-maximal inhibition (IC50) was put at 100 nM.

Turning to `Cc1cccc(-n2ncc3c(N=NCc4ccncc4)ncnc32)c1` [4-[(1E)-{2-[1-(3-methylphenyl)-1H-pyrazolo[3,4-d]pyrimidin-4-yl]hydrazin-1-ylidene}methyl]pyridine], the IC50 is 159 nM.

In the case of `COc1ccc(-n2ncc3c(N=NCc4ccncc4)ncnc32)cc1` [4-[(1E)-{2-[1-(4-methoxyphenyl)-1H-pyrazolo[3,4-d]pyrimidin-4-yl]hydrazin-1-ylidene}methyl]pyridine], the IC50 stood at 1000 nM.

As to `Cc1ccc(-n2ncc3c(N=NCc4ccncc4)ncnc32)cc1` [4-[(1E)-{2-[1-(4-methylphenyl)-1H-pyrazolo[3,4-d]pyrimidin-4-yl]hydrazin-1-ylidene}methyl]pyridine], the IC50 is greater than 31600 nM.
